Reference: patent publication EP0721336B1, “BENZAZOLE COMPOUNDS FOR USE IN THERAPY” (CANCER RESEARCH CAMPAIGN TECHNOLOGY LIMITED, priority 1993, dated 1995)
Like-named read-outs stand apart in the source and are kept apart here. Marks after values point to notes of the source that are not given here.

Assays:
ZR 75 mammary (ER+) = assay: In vitro cytotoxicity assay; assay type: cell-based; settings: Homo sapiens, ZR75
From the text: (§1) This is illustrated in Tables 1 and 2 at the end of the present description which show in vitro test results obtained in various sets of experiments for the cytotoxic activity of this compound CJM 126 against a range of human tumour cell lines, expressed in terms of IC50 values (concentration or dosage required to reduce cell growth or proliferation by 50%) calculated from dose-effect curves plotted for cultures of the cells in question.
(§2) In carrying out the above in vitro studies, the method used for conducting the cytotoxicity assays was generally substantially as follows: • Cells were maintained in a continuous logarithmic culture in Dulbecco's medium supplemented with 10% fetal calf serum and penicillin (100 IU/ml) and streptomycin (100 µg/ml). The cells were mildly trypsinized for passage and for use in assays. On day zero, 100µl of trypsinized tumour cells (1 x 10^4/ml) were plated in the wells of 96-well flat-bottom microtiter plates. […] On day two 50µl of the highest drug concentration was added to the wells of column 12 and from there serially diluted 3-fold to column 1 by serial transfer of 50µl using an 8-channel micropipette. The final volume of column 1 was adjusted to 100µl. No additions were made to the wells of rows A and B, which served as controls. The plates were further incubated for 5 days at 37°C and 5% CO2 in air. Each compound was tested in duplicate. • On day 7 the test was terminated by the addition of 100µl saline containing 0.002% w/v propidium iodide (Sigma), 0.3% drawing ink (Staedtler "Marsmatic 745" - Trade Mark) and 0.5% Triton X-100. The plates were kept at 4°C overnight before reading on an inverted microscope equipped with an automated scanning stage. Fluorescence intensity was measured in arbitrary units by a photomultiplier. An HP-87 computer controlled the movement of the stage and also collected and processed the data from the multiplier. • For each compound tested a dose-response curve was obtained and the IC50 value (the drug concentration at 50% inhibition of cell growth) was calculated.

HT29 colon carcinoma = assay: In vitro cytotoxicity assay; assay type: cell-based; settings: Homo sapiens, HT-29
From the text: as §1, §2

MCF 7-B (ER+) = assay: In vitro cytotoxicity assay; assay type: cell-based; settings: Homo sapiens; 2nd series of experiments
From the text: as §1, §2

HX/62 ovarian carcinoma = assay: In vitro cytotoxicity assay; assay type: cell-based; settings: Homo sapiens, HX62; 2nd series of experiments
From the text: as §1, §2

CH 1/CisR = assay: In vitro cytotoxicity assay; assay type: cell-based; settings: Homo sapiens, CH1cisR; 2nd series of experiments
From the text: as §1, §2

41M ovarian carcinoma = assay: In vitro cytotoxicity assay; assay type: cell-based; settings: Homo sapiens; 2nd series of experiments
From the text: as §1, §2

SKOV-3 ovarian carcinoma = assay: In vitro cytotoxicity assay; assay type: cell-based; settings: Homo sapiens, SK-OV-3; 2nd series of experiments
From the text: as §1, §2

WiDr colon carcinoma = assay: In vitro cytotoxicity assay; assay type: cell-based; settings: Homo sapiens
From the text: as §1, §2

SKBR3 mammary (ER-) = assay: In vitro cytotoxicity assay; assay type: cell-based; settings: Homo sapiens, SK-BR-3
From the text: as §1, §2

IGR37 melanoma = assay: In vitro cytotoxicity assay; assay type: cell-based; settings: Homo sapiens, IGR-37
From the text: as §1, §2

[1] = tested on: MDA 231 mammary (EGFR+/erbB3+); assay: In vitro cytotoxicity assay; assay type: cell-based; settings: Homo sapiens, MDA-MB-231
From the text: as §1, §2

CH 1 ovarian carcinoma = assay: In vitro cytotoxicity assay; assay type: cell-based; settings: Homo sapiens; 2nd series of experiments
From the text: as §1, §2

A2780/CisR = assay: In vitro cytotoxicity assay; assay type: cell-based; settings: Homo sapiens, A2780cisR; 2nd series of experiments
From the text: as §1, §2

A204 rhabdomyosarcoma = assay: In vitro cytotoxicity assay; assay type: cell-based; settings: Homo sapiens
From the text: as §1, §2

T47D mammary (ER-) = assay: In vitro cytotoxicity assay; assay type: cell-based; settings: Homo sapiens, 2nd series of experiments
From the text: as §1, §2

MCF 7-T (ER-) = assay: In vitro cytotoxicity assay; assay type: cell-based; settings: Homo sapiens; 2nd series of experiments
From the text: as §1, §2

41M/CisP = assay: In vitro cytotoxicity assay; assay type: cell-based; settings: Homo sapiens; 2nd series of experiments
From the text: as §1, §2

T24 bladder carcinoma = assay: In vitro cytotoxicity assay; assay type: cell-based; settings: Homo sapiens
From the text: as §1, §2

[2] = tested on: BO (T61) human mammary carcinomas; assay: In vivo activity against implanted BO tumour; set-up: species or system NMRI-nu/nu female mice; settings: i.p., qd 27,34,41
[3] = 2nd series of experiments, read-out: IC50

With Nc1ccc(-c2nc3ccccc3s2)cc1 [CJM 126, 2-(4-aminophenyl)benzothiazole] the IC50 (ZR 75 mammary (ER+); [3]) was 0.028 µM, the IC50 (ZR 75 mammary (ER+); ZR 75, read-out: estimated IC50) was about 0.0247 µM and the IC50 (HT29 colon carcinoma; 1st series of experiments) was 7.57 µg/mL. The IC50 (HT29 colon carcinoma; 2nd series of experiments) was 33 µM, the IC50 (MCF 7-B (ER+)) was 62.2 µM and the IC50 (HX/62 ovarian carcinoma) was 120 µM. The IC50 (CH 1/CisR) was 33 µM, the IC50 (41M ovarian carcinoma) was 36 µM and the IC50 (SKOV-3 ovarian carcinoma) was 64 µM. For the same compound, the IC50 (WiDr colon carcinoma; 1st series of experiments) was 6.01 µg/mL, the IC50 (WiDr colon carcinoma; 2nd series of experiments) was 26 µM and the IC50 (SKBR3 mammary (ER-); [3]) was 0.026 µM. It also gave an IC50 (SKBR3 mammary (ER-); SKBR3, read-out: estimated IC50) of about 0.0259 µM, an IC50 (IGR37 melanoma; 1st series of experiments) of 24 µg/mL and an IC50 (IGR37 melanoma; 2nd series of experiments) of 106 µM. The IC50 [1, 3] was 0.017 µM, the IC50 ([1]; MDA 231, read-out: estimated IC50) was about 0.0172 µM and the IC50 (CH 1 ovarian carcinoma) was 22 µM. It also gave an IC50 (A2780/CisR) of 37 µM, an IC50 (A204 rhabdomyosarcoma; 1st series of experiments) of 5.94 µg/mL and an IC50 (A204 rhabdomyosarcoma; 2nd series of experiments) of 26 µM. It also gave an IC50 (T47D mammary (ER-)) of 44.1 µM, an IC50 (MCF 7-T (ER-)) of 12.9 µM and an IC50 (41M/CisP) of 40 µM. It also gave an IC50 (T24 bladder carcinoma; 1st series of experiments) of 16.9 µg/mL, an IC50 (T24 bladder carcinoma; 2nd series of experiments) of 75 µM and a BWC ([2]; 1 mg/kg/day) of -5. The “Relative tumour volume (T/C%)” value ([2]; 1 mg/kg/day, d33) was 173%, the “Relative tumour volume (T/C%)” value ([2]; 1 mg/kg/day, d41) was 72% and the “Relative tumour volume (T/C%)” value ([2]; 1 mg/kg/day, d47) was 25* %. The “Relative tumour volume (T/C%)” value ([2]; 1 mg/kg/day, d55) was 67%, the “Relative tumour volume (T/C%)” value ([2]; 1 mg/kg/day, d61) was 41* % and the BWC ([2]; 10 mg/kg/day) was -4. For the same compound, the “Relative tumour volume (T/C%)” value ([2]; 10 mg/kg/day, d33) was 107%, the “Relative tumour volume (T/C%)” value ([2]; 10 mg/kg/day, d41) was 74% and the “Relative tumour volume (T/C%)” value ([2]; 10 mg/kg/day, d47) was 55%. For the same compound, the “Relative tumour volume (T/C%)” value ([2]; 10 mg/kg/day, d55) was 70%, the “Relative tumour volume (T/C%)” value ([2]; 10 mg/kg/day, d61) was 52% and the BWC ([2]; 100 mg/kg/day) was -7. The “Relative tumour volume (T/C%)” value ([2]; 100 mg/kg/day, d33) was 137%, the “Relative tumour volume (T/C%)” value ([2]; 100 mg/kg/day, d41) was 77% and the “Relative tumour volume (T/C%)” value ([2]; 100 mg/kg/day, d47) was 87%. The “Relative tumour volume (T/C%)” value ([2]; 100 mg/kg/day, d55) was 68% and the “Relative tumour volume (T/C%)” value ([2]; 100 mg/kg/day, d61) was 52%.
